{"source": "patent US20150141381A1", "about": "“TETRACYCLINE COMPOUNDS HAVING TARGET THERAPEUTIC ACTIVITIES” (Paratek Pharmaceuticals, Inc., priority 2001, published 2015)", "key": {"[1]": {"tested_on": "MMP-9 production from PMA stimulated THP-1 cells", "experiment": "Assay for MMP-9 Production from PMA Stimulated THP-1 Cells", "type": "cell-based, human", "settings": "PMA 10 nM, 24 hours, MMP-9 ELISA of conditioned media", "experimental": "Cultures of human monocyte THP-1 cells were suspended at 1×10^6 cells/mL in RPMI-1640 supplemented with 10% FCS. Cell suspensions (90 μL per well) were seeded into 96-well microtiter plates, and incubated for 30 minutes at 37° C., in 5% CO2 and approximately 95% humidity. Serial dilutions of test drug are prepared at 2× final concentration under sterile conditions and 100 μL was transferred to cell plates. Plates were then incubated as above for 15 minutes. PMA (phorbol-12-myristate-13-acetate) was diluted in media to 20× final concentration. 10 μL of diluted PMA was added to the cell plate, resulting in a final concentration of 10 nM. Plates were then incubated again as above for 24 hours. After 24 hours, 100 μL of conditioned media was tested for MMP-9 protein levels using the Quantikine® Human MMP-9 (total) Immunoassay from R&D Systems. MMP-9 levels were calculated based on a standard curve of purified MMP-9 dilution samples run simultaneously in the ELISA plate. This assay detected both the 92 kDa pro- and 82 kDa active forms of MMP-9."}, "S. aureus RN450": {"tested_on": "S. aureus RN450", "experiment": "In Vitro Anti-Bacterial Activity Assay (MIC), gram positive", "type": "cell-based", "settings": "Staphylococcus aureus, RN450, 18 h, MIC class, Table 3; read-out: Antibiotic Activity Gram +"}, "E. coli mL308 225": {"tested_on": "E. coli mL308 225", "experiment": "In Vitro Anti-Bacterial Activity Assay (MIC), gram negative", "type": "cell-based", "settings": "Escherichia coli, ML308225, 18 h, MIC class, Table 3; read-out: Antibiotic Activity Gram −"}, "[2]": {"tested_on": "nitric oxide synthesis in the J774 cell line", "experiment": "Lipopolysaccharide Stimulation of Macrophage Assay (LSM Assay), inhibition of nitric oxide", "type": "cell-based", "settings": "inhibition of nitric oxide synthesis, LPS (100 ng/ml) stimulated J774 cells, nitrite by Greiss Reaction, test compound 56 μg/ml", "experimental": "This assay was used to determine the anti-inflammatory effect of tetracycline compounds of the invention by determining the modulation of nitric oxide, interleukin-10 and interleukin-12 synthesis in the J774 cell line, according to a literature procedure (D'Agostino P. et al. Int Immunopharmacol. 2001 September; 1(9-10):1765-76). J774.2 cells were stimulated with 100 ng/ml lipopolysaccharide (LPS). Nitrite, the spontaneous degradation product of nitric oxide, is measured in cell supernatants using the Greiss Reaction. In the experimental conditions, test tetracycline compounds were added 30 minutes prior to LPS stimulation. Cytotoxicity is determined using Resazurin metabolism. On the first day, a 96-well black-walled plate (except for the bottom row) was seeded with 100 μl of a 2.5×10^6 cells/ml suspension and incubated for two hours at 37° C. and 5% CO2. Towards the end of the two hour incubation period, test compounds were prepared at a concentration of 139 μg/ml, in 1.25% DMSO, a 2.5× concentration ready for addition to the cells.\nAt the end of the two hour incubation period, 80 μl of each of the test tetracycline compound solutions were added to the cell plates to make a final concentration of 56 μg/ml. Next, 80 μl of 1.25% DMSO in media was added to the negative control wells. Then, 80 μl of media was added to the positive control wells. The plate was then incubated for half an hour at 37° C., 5% CO2. A 10× working solution of LPS was prepared at a concentration of 1 μg/ml LPS.\nAfter the half hour incubation period, 20 μl of LPS (1 μg/ml) in media was added to half of the test and control wells to give a final concentration of 100 ng/ml. Next, 20 μl of media was added to other half of the wells. The plate was then incubated for 24 hours at 37° C., 5% CO2. 100 μl of the supernatant from each well was collected for nitrite testing. 60 μl of the supernatant was collected for cytokine testing using an enzyme linked immunosorbant assay. The plates are then stored after being covered with sealer and frozen.\nFor the testing toxicity, the remaining media was blotted from the cell plates and 50 μl of Resazurin was added to each well (0.042 mg/ml in PBS w/Ca and Mg). The plate were then incubated for 45 mins, 37° C., 5% CO2, and for 30 minutes at room temperature. The plate was then read for Resazurin fluorescence.\n50 μl/well of sulfanilamide solution (1% sulfanilamide in 5% […]) was added to supernatant plates. The plates were then incubated for 10 minutes at room temperature in the dark. Next, 50 μl/well NED solution (0.1% N-1-naphthylethylene diamine dihydrochloride in water) was added and incubated for 10 minutes at room temperature in the dark. Plates are then read for nitrite measurement and compared to a standard curve generated from the control wells."}, "[3]": {"tested_on": "cultured murine cortical neurons", "experiment": "Protection of Cultured Cortical Neurons from Excitotoxic Injury Induced by NMDA (NE Assay)", "type": "cell-based, mice", "settings": "NMDA 62.5 μM, LDH release 24 hours after starting the exposure", "experimental": "Primary cortical astrocyte cultures were prepared from one-day old mice, as described in the literature procedure (Tikka, T M et al. J Immunol. 2001 Jun. 15; 166(12):7527-33). After decapitation, the forebrain cortices were collected, cleaned from meninges and, after mincing, dissociated by incubation in papain/Dnase solution followed by trituration. The dissociated cells were suspended in a culture medium consisting of Eagle's minimal essential medium (MEM) with 10% heat-inactivated fetal bovine serum and glutamine (2 mM) and plated in 75 cm^2 cell culture flasks. The medium was replaced with fresh culture medium at day 7. At confluence (day 12-15), the astrocytes were trypsinized and re-plated into 24-well culture vessels. On day 7-8, the neurons were cultured on top of these confluent astrocyte monolayers.\nCortical neuron suspensions were prepared from embryonic day 17 mice. The cortices were collected and meninges removed. The tissue was minced into small pieces and incubated in trypsin solution. The tissue was suspended using a pipette and after centrifugation resuspended and plated on top of astrocyte cultures at a density of 250,000 cells/well to 24-well culture vessel in Eagle's minimal essential medium (MEM, Earle's salts) supplemented with 20 mM glucose, 2 mM glutamine, 10% fetal bovine serum, and 10% heat-inactivated horse serum (HS). Medium was changed after 5 days to MEM containing 20 mM glucose, 2 mM glutamine, and 10% HS, as well as cytosine arabinoside (final concentration 10 μM) to inhibit cell division, and incubated for 2 days. Subsequently, cultures were fed twice weekly with MEM supplemented with 20 mM glucose, 2 mM glutamine and 10% HS, and used at day 12-15.\nOn the day of experiment, the culture medium was replaced with 1) MEM, 2) MEM containing the test tetracycline compounds. Positive control drug included 10 μM MK-801 (Sigma). […] As a control for total neuronal death, a 24 hour incubation with 500 μM NMDA was used (100% cell death control).\nThe cell viability was assessed by measuring lactate dehydrogenase (LDH) release 24 hours after starting the exposure. The LDH release to the culture medium was measured from cell-free medium using Sigma LDH reagent employing kinetic measurement of conversion of lactate to pyruvate using NADH as a cofactor. The rate of increase in absorbance at 340 nm was directly proportional to the activity of LDH in the sample, and was measured with a Labsystems Multiskan ELISA reader."}, "in vitro": {"experiment": "in vitro", "type": "cell-based", "settings": "African green monkey (COS-1) and Chinese hamster (CHO-K1)", "experimental": "COS-1 and CHO-K1 cell suspensions were prepared, seeded into 96-well tissue culture treated black-walled microtiter plates (density determined by cell line), and incubated overnight at 37° C., in 5% CO2 and approximately 95% humidity. The following day, serial dilutions of drug were prepared under sterile conditions and transferred to cell plates. Cell/Drug plates were incubated under the above conditions for 24 hours. Following the incubation period, media/drug was aspirated and 50 μl of Resazurin (0.042 mg/ml in PBS w/Ca and Mg) was added. The plates were then incubated under the above conditions for 2 hours and then in the dark at room temperature for an additional 30 minutes. Fluorescence measurements were taken (excitation 535 nm, emission 590 nm)."}}}
{"smiles": "CN(C)[C@@H]1C(O)=C(C(N)=O)C(=O)[C@@]2(O)C(O)=C3C(=O)c4c(O)ccc(N5CCOCC5)c4C[C@H]3C[C@@H]12", "note": "[drawing 4289]", "values": [{"measurement": "MMP-9 (inhibition of MMP-9 production)", "setting": "[1]", "value": 2}]}
{"smiles": "CCCCOc1ccc(N(C)C)c2c1C(=O)C1=C(O)[C@]3(O)C(=O)C(C(N)=O)=C(O)[C@@H](N(C)C)[C@@H]3C[C@@H]1C2", "note": "[OM]", "values": [{"measurement": "MIC", "setting": "S. aureus RN450", "value": "> 4", "unit": "µg/mL"}, {"measurement": "MIC", "setting": "E. coli mL308 225", "value": "> 4", "unit": "µg/mL"}, {"measurement": "Nitrite", "setting": "[2]", "value": "○"}, {"measurement": "neuroprotection (cell viability by LDH release)", "setting": "[3]", "value": "good neuroprotection"}]}
{"smiles": "CN(C)CCC(=O)c1ccc(O)c2c1C[C@H]1C[C@H]3[C@H](N(C)C)C(O)=C(C(N)=O)C(=O)[C@@]3(O)C(O)=C1C2=O", "note": "[drawing 4022]", "values": [{"measurement": "MMP-9 (inhibition of MMP-9 production)", "setting": "[1]", "value": 3}]}
{"smiles": "CN(C)c1ccc(O)c2c1CC1CC3[C@H](N(C)C)C(O)=C(C(N)=O)C(=O)C3(O)C(O)=C1C2=O", "note": "(stereo partly shown) [minocycline, Minocycline]", "values": [{"measurement": "IC50 at 24 h", "setting": "in vitro", "value": "> 25", "unit": "µg/mL"}]}
{"smiles": "CC1c2cccc(O)c2C(=O)C2=C(O)C3(O)C(=O)C(C(N)=O)=C(O)C(N(C)C)C3C(O)C21", "note": "(stereo not shown) [doxycycline, Doxycycline]", "values": [{"measurement": "IC50 at 24 h", "setting": "in vitro", "value": "> 25", "unit": "µg/mL"}]}
{"smiles": "CCC(=O)O[C@H]1[C@H]2C(=C(O)[C@]3(O)C(=O)C(C(N)=O)=C(O)[C@@H](N(C)C)[C@H]13)C(=O)c1c(ccc(NC(=O)Nc3cccc4ccccc34)c1O)[C@@H]2C", "note": "[Q]", "values": [{"measurement": "MIC", "setting": "S. aureus RN450", "value": "< 4", "unit": "µg/mL"}, {"measurement": "MIC", "setting": "E. coli mL308 225", "value": "> 4", "unit": "µg/mL"}, {"measurement": "Nitrite", "setting": "[2]", "value": "○"}, {"measurement": "neuroprotection (cell viability by LDH release)", "setting": "[3]", "value": "good neuroprotection"}]}
{"smiles": "CN(C)[C@@H]1C(O)=C(C(N)=O)C(=O)[C@@]2(O)C(O)=C3C(=O)c4c(O)ccc(-c5ccc(NC(=O)c6ccno6)cc5)c4C[C@H]3C[C@@H]12", "note": "[drawing 4097]", "values": [{"measurement": "MMP-9 (inhibition of MMP-9 production)", "setting": "[1]", "value": 3}]}
